# Legend:
# [1] = target: Muscarinic acetylcholine receptor M3 (Homo sapiens) (UniProt P20309); test: Displacement of [3H]4-DAMP from recombinant human M3 receptor at 10 uM after 60 mins by radiometric scintillation analysis relative to control
# [2] = target: Melanocortin receptor 4 (Homo sapiens) (UniProt P32245); test: Displacement of [125I]NDP-alpha -MSH from recombinant human MC4 receptor at 10 uM after 120 mins by radiometric scintillation counting analysis relative to control
# [3] = Displacement of [3H]batrachotoxinin from rat brain sodium channel site 2 after 60 mins by scintillation counting analysis
# [4] = Drug metabolism in mouse liver microsomes assessed as metabolite formation by measuring retention time at 20 uM after 30 to 60 mins in presence of NADP by UPLC/MS analysis; type: ADME, Microsome
# [5] = target: Adrenergic receptor alpha-2 (Rattus norvegicus) (UniProt P22086+P19328+P22909); test: Displacement of [3H]RX 821002 from rat brain alpha 2 receptor at 10 uM after 60 mins by radiometric scintillation analysis relative to control
# [6] = target: 5-hydroxytryptamine receptor 2B (Homo sapiens, UniProt P41595); test: Displacement of [125I](+/-)DOI from recombinant human 5-HT2B receptor at 10 uM after 60 mins by radiometric scintillation analysis relative to control
# [7] = target: 5-hydroxytryptamine receptor 1B (Homo sapiens) (UniProt P28222); test: Displacement of [3H]GR125743 from recombinant human 5-HT1B receptor at 10 uM after 60 mins by radiometric scintillation analysis relative to control
# [8] = target: Adenosine receptor A2a (Homo sapiens) (UniProt P29274); test: Displacement of [3H]CGS 21680 from recombinant human A2A receptor at 10 uM after 120 mins by radiometric scintillation analysis relative to control
# [9] = target: Type-1 angiotensin II receptor (Homo sapiens) (UniProt P30556); test: Displacement of [125I][Sar1,Ile8]-AT-II from recombinant human AT1 receptor at 10 uM after 120 mins by radiometric scintillation analysis relative to control
# [10] = MRT in CD-1 mouse brain at 5 mg/kg, ip measured up to 480 mins by LC/ESI-MS/MS analysis; type: ADME, organism-based
# [11] = target: Endothelin-1 receptor (Homo sapiens) (UniProt P25101); test: Displacement of [125I]endothelin-1 from recombinant human ETA receptor at 10 uM after 120 mins by radiometric scintillation analysis relative to control
# [12] = Tmax in CD-1 mouse plasma at 5 mg/kg, ip measured up to 480 mins by LC/ESI-MS/MS analysis; type: ADME, organism-based
# [13] = target: 5-hydroxytryptamine receptor 7 (Homo sapiens) (UniProt P34969); test: Displacement of [3H]LSD from recombinant human 5-HT7 receptor at 10 uM after 120 mins by radiometric scintillation analysis relative to control
# [14] = target: Neuropeptide Y receptor type 1 (Homo sapiens) (UniProt P25929); test: Displacement of [125I]peptide YY from human Y1 receptor at 10 uM after 120 mins by radiometric scintillation analysis relative to control
# [15] = Mutagenicity in Salmonella typhimurium TA100 at 100 ug/plate preincubated for 20 mins followed by addition of top agar and measured after 48 hrs by Ames test; type: toxicity; conditions: salmonella enterica subsp. enterica serovar typhimurium
# [16] = Mutagenicity in Salmonella typhimurium TA98 at 50 ug/plate preincubated for 20 mins followed by addition of top agar and measured after 48 hrs by Ames test; type: toxicity; conditions: salmonella enterica subsp. enterica serovar typhimurium
# [17] = MRT in CD-1 mouse plasma at 5 mg/kg, ip measured up to 480 mins by LC/ESI-MS/MS analysis; type: ADME, organism-based
# Sequence of Endothelin-1 receptor (Homo sapiens) (P25101 whole entry): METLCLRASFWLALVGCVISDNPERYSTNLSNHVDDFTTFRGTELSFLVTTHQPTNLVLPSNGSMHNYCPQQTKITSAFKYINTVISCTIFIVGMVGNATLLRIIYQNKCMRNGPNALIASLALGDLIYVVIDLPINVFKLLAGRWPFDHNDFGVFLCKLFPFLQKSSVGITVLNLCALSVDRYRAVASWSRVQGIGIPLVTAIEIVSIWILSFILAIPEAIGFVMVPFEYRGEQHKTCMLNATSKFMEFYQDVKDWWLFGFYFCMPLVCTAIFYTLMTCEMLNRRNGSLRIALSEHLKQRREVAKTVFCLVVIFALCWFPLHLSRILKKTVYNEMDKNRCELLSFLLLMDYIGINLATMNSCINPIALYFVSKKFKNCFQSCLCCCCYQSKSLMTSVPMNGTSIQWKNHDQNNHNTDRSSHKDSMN
# Sequence of Adenosine receptor A2a (Homo sapiens) (P29274 whole entry): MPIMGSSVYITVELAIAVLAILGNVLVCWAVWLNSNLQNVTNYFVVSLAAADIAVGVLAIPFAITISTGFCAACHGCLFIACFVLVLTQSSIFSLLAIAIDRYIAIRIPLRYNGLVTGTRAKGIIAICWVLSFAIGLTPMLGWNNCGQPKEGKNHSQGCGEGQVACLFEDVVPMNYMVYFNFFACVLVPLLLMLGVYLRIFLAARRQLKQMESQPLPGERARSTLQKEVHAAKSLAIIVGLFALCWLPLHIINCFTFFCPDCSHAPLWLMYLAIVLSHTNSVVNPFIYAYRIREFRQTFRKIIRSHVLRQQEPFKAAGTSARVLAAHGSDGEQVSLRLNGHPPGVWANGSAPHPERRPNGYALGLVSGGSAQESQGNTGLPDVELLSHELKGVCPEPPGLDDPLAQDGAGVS
# Sequence of Type-1 angiotensin II receptor (Homo sapiens) (P30556 whole entry): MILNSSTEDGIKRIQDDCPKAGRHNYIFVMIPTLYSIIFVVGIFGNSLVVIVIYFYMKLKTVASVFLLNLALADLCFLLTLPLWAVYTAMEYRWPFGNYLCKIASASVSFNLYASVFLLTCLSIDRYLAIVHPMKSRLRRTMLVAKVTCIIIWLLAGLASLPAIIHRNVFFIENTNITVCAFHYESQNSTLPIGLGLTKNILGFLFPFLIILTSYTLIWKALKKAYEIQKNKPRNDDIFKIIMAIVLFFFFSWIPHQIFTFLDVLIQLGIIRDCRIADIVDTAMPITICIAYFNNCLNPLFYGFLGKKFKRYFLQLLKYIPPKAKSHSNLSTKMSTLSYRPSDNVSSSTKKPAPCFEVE
# Sequence of Neuropeptide Y receptor type 1 (Homo sapiens) (P25929 whole entry): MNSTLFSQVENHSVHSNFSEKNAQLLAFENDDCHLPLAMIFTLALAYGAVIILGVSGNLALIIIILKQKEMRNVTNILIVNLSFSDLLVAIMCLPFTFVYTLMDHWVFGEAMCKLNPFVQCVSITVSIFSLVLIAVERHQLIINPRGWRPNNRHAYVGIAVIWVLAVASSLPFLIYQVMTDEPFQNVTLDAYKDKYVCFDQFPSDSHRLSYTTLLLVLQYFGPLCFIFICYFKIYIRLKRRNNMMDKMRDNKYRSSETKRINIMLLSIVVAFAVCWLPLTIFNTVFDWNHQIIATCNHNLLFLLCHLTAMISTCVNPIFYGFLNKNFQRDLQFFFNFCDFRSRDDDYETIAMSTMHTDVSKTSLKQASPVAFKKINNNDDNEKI
# Sequence of 5-hydroxytryptamine receptor 7 (Homo sapiens) (P34969 whole entry): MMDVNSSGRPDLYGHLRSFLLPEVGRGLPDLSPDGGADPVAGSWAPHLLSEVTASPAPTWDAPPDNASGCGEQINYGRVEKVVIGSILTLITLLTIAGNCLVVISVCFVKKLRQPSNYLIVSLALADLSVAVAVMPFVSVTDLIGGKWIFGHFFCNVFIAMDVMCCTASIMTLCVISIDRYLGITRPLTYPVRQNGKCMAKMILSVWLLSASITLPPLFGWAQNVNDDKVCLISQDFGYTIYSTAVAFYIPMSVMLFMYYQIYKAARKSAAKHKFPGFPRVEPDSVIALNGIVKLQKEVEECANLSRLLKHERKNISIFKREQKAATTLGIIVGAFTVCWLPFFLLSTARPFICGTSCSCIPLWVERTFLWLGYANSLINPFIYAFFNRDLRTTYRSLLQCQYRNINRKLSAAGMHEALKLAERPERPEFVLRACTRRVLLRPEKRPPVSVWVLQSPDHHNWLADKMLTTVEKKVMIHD
# Sequence of 5-hydroxytryptamine receptor 1B (Homo sapiens) (P28222 whole entry): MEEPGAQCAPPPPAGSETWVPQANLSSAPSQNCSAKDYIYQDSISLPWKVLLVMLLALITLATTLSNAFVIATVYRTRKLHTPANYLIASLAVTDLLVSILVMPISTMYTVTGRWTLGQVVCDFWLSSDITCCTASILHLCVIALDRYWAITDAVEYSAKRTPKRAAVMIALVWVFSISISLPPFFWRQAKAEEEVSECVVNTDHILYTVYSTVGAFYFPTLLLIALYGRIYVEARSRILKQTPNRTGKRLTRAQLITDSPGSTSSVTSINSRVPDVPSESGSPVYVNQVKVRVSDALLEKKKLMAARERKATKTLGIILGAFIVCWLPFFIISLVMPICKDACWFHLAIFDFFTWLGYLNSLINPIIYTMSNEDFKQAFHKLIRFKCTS
# Sequence of Muscarinic acetylcholine receptor M3 (Homo sapiens) (P20309 whole entry, looked up): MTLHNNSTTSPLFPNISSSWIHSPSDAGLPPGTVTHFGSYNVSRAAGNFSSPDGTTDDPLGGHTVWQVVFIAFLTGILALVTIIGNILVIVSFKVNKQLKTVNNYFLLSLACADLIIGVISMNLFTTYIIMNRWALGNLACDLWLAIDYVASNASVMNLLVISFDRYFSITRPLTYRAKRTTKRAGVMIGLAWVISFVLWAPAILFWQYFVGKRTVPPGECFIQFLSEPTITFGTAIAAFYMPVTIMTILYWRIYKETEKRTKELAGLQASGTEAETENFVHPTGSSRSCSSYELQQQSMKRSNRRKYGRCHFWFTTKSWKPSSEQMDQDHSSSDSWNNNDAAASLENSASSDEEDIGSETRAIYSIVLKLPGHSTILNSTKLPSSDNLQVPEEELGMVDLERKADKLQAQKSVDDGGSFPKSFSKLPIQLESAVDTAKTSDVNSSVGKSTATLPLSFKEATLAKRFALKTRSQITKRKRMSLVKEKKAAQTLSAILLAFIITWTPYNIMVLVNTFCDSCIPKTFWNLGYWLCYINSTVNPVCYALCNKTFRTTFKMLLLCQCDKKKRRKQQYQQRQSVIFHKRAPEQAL
# Sequence of 5-hydroxytryptamine receptor 2B (P41595 whole entry): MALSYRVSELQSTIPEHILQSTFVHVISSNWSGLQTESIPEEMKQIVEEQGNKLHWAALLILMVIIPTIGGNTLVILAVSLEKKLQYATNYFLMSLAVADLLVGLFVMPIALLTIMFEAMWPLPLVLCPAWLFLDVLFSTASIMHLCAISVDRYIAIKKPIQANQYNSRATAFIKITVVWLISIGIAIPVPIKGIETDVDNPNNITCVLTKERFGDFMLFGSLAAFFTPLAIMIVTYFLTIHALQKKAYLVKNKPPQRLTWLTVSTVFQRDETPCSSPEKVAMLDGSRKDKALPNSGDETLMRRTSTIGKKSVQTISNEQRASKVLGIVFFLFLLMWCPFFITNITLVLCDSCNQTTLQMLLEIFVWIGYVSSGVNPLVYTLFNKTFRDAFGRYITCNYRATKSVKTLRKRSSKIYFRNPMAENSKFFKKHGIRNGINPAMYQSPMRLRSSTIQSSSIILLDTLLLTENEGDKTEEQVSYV
# Sequence of Melanocortin receptor 4 (Homo sapiens) (P32245 whole entry): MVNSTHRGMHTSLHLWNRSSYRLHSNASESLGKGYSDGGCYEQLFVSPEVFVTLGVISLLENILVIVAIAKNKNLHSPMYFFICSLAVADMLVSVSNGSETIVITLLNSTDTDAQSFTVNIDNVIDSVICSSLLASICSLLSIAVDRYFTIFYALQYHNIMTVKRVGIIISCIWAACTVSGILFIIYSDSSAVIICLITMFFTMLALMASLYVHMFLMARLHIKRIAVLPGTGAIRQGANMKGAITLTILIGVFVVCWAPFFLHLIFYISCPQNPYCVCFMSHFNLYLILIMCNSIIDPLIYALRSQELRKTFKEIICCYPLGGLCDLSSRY
smiles,measurement,setting,value
Cl.Cl.O=c1c2cc(Cl)ccc2oc2ccc(CN3CCN(CCOCCO)CC3)cc12,inhibition,[1],50.1%
same,inhibition,[2],-4%
same,Ki,[3],1340 nM
same,Retention_time,[4],4.49 min
same,inhibition,[5],9.2%
same,inhibition,[6],76.8%
same,inhibition,[7],32.7%
same,inhibition,[8],12.2%
same,inhibition,[9],8.4%
same,MRT,[10],2.58 h
same,inhibition,[11],4.9%
same,Tmax,[12],0.25 h
same,inhibition,[13],5.3%
same,inhibition,[14],-9.5%
same,Activity_index,[15],0.45
same,Activity_index,[16],0.76
same,MRT,[17],2.59 h

# Reference: ChEMBL document CHEMBL4364344, “Design, synthesis and evaluation of activity and pharmacokinetic profile of new derivatives of xanthone and piperazine in the central nervous system” (Bioorg Med Chem Lett, 2019)
